# Key:
# [1] = tested on: influenza virus A/Puerto Rico/8/34 (H1N1); type: cell-based; details: read-out: IC50, concentration resulting in 50% inhibition of virus replication; A/Puerto Rico/8/34 (H1N1) in MDCK cells
# SARS-CoV-2 pseudovirus [2] = test: microbe, parasite or virus in culture; type: cell-based; details: Severe acute respiratory syndrome-related coronavirus, read-out: Inhibition rate (%), 5.0 µM, BHK-21-hACE2 cells
# SARS-CoV-2 pseudovirus [3] = test: microbe, parasite or virus in culture; type: cell-based; details: Severe acute respiratory syndrome-related coronavirus, read-out: EC50, concentration resulting in 50% inhibition of virus replication
# in vitro = details: hamster, Cell viability (%), BHK-21-hACE2 cells
Structure (SMILES),IC50 [1] [µM],inhibition at 5 µM (SARS-CoV-2 pseudovirus [2]) [%],EC50 (SARS-CoV-2 pseudovirus [3]) [µM],viability at 20 µM (in vitro) [%]
CCC(CC)O[C@@H]1C=C(C(=O)O)C[C@H](N)[C@H]1NC(C)=O [Oseltamivir carboxylate],6.4,,,
"CCN(CC)Cc1cc(Nc2ccnc3cc(Cl)ccc23)ccc1O [Amodiaquine, amodiaquine]",,92.4,3.17,107

# Source: paper PMC9343747 (Phytochemistry Letters, 2022)
